Paper PMC8488497, “In silico and in vitro analysis of an Aspergillus niger chitin deacetylase to decipher its subsite sugar preferences” (The Journal of Biological Chemistry, 2021)

Target: T1, AngCDA (Aspergillus niger, UniProt A2QZC8)
T1 construct: gene An12g04480; signal peptide (residues 1-19) removed; N- and C-terminal Strep-tag II; E. coli Rosetta 2 (DE3); monomer; the crystal used a pelB / C-terminal Strep-tag II construct
T1 sequence (A2QZC8 20-239): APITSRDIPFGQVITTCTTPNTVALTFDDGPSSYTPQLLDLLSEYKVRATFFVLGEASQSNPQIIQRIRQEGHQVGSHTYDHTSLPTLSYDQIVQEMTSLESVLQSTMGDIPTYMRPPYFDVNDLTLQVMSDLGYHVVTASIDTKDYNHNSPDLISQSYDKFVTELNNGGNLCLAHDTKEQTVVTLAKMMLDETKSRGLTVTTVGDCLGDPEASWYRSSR
Test: HILIC-ESI-MS product quantification and sequencing
Type: biochemical
Conditions: deacetylation; 0.5 mM substrate, 50 mM TEA pH 7, 37 °C

SMILES	HILIC-ESI-MS product quantification and sequencing
CC(=O)N[C@H]1[C@H](O[C@H]2[C@H](O)[C@@H](NC(C)=O)C(O)O[C@@H]2CO)O[C@H](CO)[C@@H](O[C@@H]2O[C@H](CO)[C@@H](O[C@@H]3O[C@H](CO)[C@@H](O)[C@H](O)[C@H]3NC(C)=O)[C@H](O)[C@H]2NC(C)=O)[C@@H]1O (some centres unmarked) [A4, chitotetraose]	mode of action of AngCDA deacetylating chitotetraose (A4)
CC(=O)N[C@H]1[C@H](O[C@H]2[C@H](O)[C@@H](NC(C)=O)[C@H](O[C@H]3[C@H](O)[C@@H](NC(C)=O)C(O)O[C@@H]3CO)O[C@@H]2CO)O[C@H](CO)[C@@H](O[C@@H]2O[C@H](CO)[C@@H](O[C@@H]3O[C@H](CO)[C@@H](O)[C@H](O)[C@H]3NC(C)=O)[C@H](O)[C@H]2NC(C)=O)[C@@H]1O (some centres unmarked) [A5]	mode of action of AngCDA deacetylating chitopentaose (A5)
